Read-outs that look alike come from different tables or passages of the source.
What was measured:
H4 mCherry-GFP-LC3 cells = assay: Test 3: Autophagy assay (mCherry-GFP-LC3 reporter, high-content imaging); format: cell-based, human; conditions: 16-18 h treatment, mCherry-positive LC3 puncta/cell
From the text: Autophagy is a catabolic pathway that degrades bulk cytosol in lysosomal compartments enabling amino acids and fatty acids to be recycled. One of the key regulators of autophagy is the mammalian target of rapamycin (mTOR), a conserved serine/threonine kinase which suppresses the initiation of the autophagic process when nutrients, growth factors and energy are available. To quantify autophagy induction by mTOR inhibitors, we use a mCherry-GFP-LC3 reporter which is amenable to retroviral delivery into mammalian cells, stable expression and analysis by fluorescence microscopy.
The amino acid sequence of the mCherry-GFP-LC3 construct is shown below (SEQ ID NO: 1). The mCherry sequence is underlined, GFP sequence is in bold and LC3A sequence is boxed.
Described hereinafter is an imaging protocol and image recognition algorithm to visualize and measure changes in the autophagic pathway.
Quantification of Autophagy Using High-Content Imaging and Analysis
• 1. Day 0: Cell plating. Subconfluent H4 mCherry-GFP-LC3 cells are harvested by trypsinization, resuspended in growth medium, and counted (H4 cells: Human neuroglioma cell line (ATCC)). A cell suspension of 66′000 cells/mL is prepared and 30 μL are added into the wells of a 384-well plate using an electronic multichannel pipette. […] The cell plates are briefly spun down and placed at 37° C. and 5% CO2. • 2. Day 1: Compound treatment. Compound dose responses are prepared in DMSO. The dose responses are then diluted 1:50 in medium. 10 ul of the diluted compound is added to 30 ul of cells, yielding a final 1:200 dilution of the original compound and final of 0.5% DMSO. Compound-treatments are performed in triplicates. The 384-well plates are placed at 37° C. and 5% CO2. Compound treatment is performed for 16-18 h (see Note 1). • 3. Day 2: Cell fixation. Cells are fixed by adding 10 μL/well 5× concentrated Mirsky's fixative supplemented with 25 μg/mL Hoechst33342. […] The 384-well plate is briefly spun down and incubated for 1 h at room temperature. Cells are then washed using a 384-well plate washer using a protocol which aspirates the volume down to 10 μL/well before dispensing 100 μL/well 1×TBS. Aspiration and dispensing steps are repeated 4 times and a final volume of 100 μL/well is left. The plate is sealed using an adhesive PCR foil. • 4. Imaging. The bottom of the plate is cleaned with 70% ethanol and then imaged using the InCell 1000 automated epifluorescence microscope. 20× magnification is used and 4 different areas (fields) are imaged per well, this typically captures a total of around 400 cells per well. Hoechst33342 images are acquired using an excitation of 360 nm (D360_40x filter), an emission of 460 nm (HQ460_40M filter) and an exposure time of 150 ms. GFP images are acquired using an excitation of 475 nm (S475_20x filter), an emission of 535 nm (HQ535_50M filter) and an exposure time of 1 s. mCherry images are acquired using an excitation of 535 nm (HQ535_50x filter), an emission of 620 nm (HQ620_60M filter) and an exposure time of 1 s. A quadruple band pass mirror is used for all images. • 5. Image analysis. The InCell Analysis software is used to analyze the images using the Multi Target Analysis algorithm. First, nuclei are detected in the Hoechst33342 image using top-hat segmentation and a minimal nuclear area of 50 μm^2. Cells are defined using a collar of 10 μm around the nuclei. Second, puncta (organelles) are identified in the mCherry image inside the cells using multi-top-hat segmentation. Third, the mask of the mCherry puncta is transferred onto the GFP image. Fourth, the GFP fluorescence intensity inside the mCherry puncta mask is measured (reference intensity). • 6. The ‘organelles’ parameter reflects mCherry-positive puncta of the mCherry-GFP-LC3 reporter and is used to calculate ‘LC3 puncta/cell’. […]

[1] = tested on: cellular mTOR kinase activity (phosphorylation of Thr 389 of S6K1) in TSC1-/- MEFs; assay: Test 2: Cellular mTOR assay (P-P70S6K T389 Surefire); format: cell-based; conditions: Mus musculus
Experimental: Test 2: Cellular mTOR Assay
30 μl are added per well to a 384 well-plate using a Multidrop instrument (Thermo scientific), resulting in 4000 cells/well. The plates are incubated at 37° C./5% CO2 for 20 hours (to allow for settling and adherance to the surface).
Eight 3-fold serial dilutions of test-compounds (beginning at 1.8 mM) are prepared in 90% DMSO and compiled on 384 well master plates (Greiner). A pan-pPI3K/mTOR inhibitor (0.8 mM of 8-(6-methoxy-pyridin-3-yl)-3-methyl-1-(4-piperazin-1-yl-3-trifluoromethyl-phenyl)-1,3-dihydro-imidazo[4,5-c]quinolin-2-one in 90% DMSO) is added to the wells for the low control. 90% DMSO is added to the wells for the high controls. Compounds are provided as 250 nl shots (Hummingbird) in 384 well-polypropylene microplates (compound plates). 50 μl of growth medium is added to the compound plates (dilution 1:200) with the Multidrop. After shaking (1 min at 2000 rpm), 10 μl of the first dilution is then transferred to the cell plate with a Matrix Plate Mate 2×3 pipettor (final dilution 1:4). After 1 hour of treatment, medium is removed from the plate and 20 μl of Surefire lysis buffer is added per well with the Multidrop.
Cell lysates are frozen for 15 minutes, thawed with shaking and transferred to the experimental 384 well-Proxiplate (5 μl/well) for the P-P70S6K (T389) Surefire assay (Perkin Elmer #TGR70S50). The first mix is composed of the reaction buffer (containing the specific antibody), the activation buffer and the acceptor beads (40 vol, 10 vol and 1 vol respectively). 5 μl per well is added to the lysates with a Zephyr® SPE Workstation (Caliper Life Sciences) and incubated for 2 hours with shaking at room temperature. After this incubation time, the second mix of dilution buffer and donor beads (20 vol and 1 vol respectively) is added to the plate with the same instrument (2 μl/well). After 2 hours, the plate can be read with an EnVision® Multilabel Reader (Perkin Elmer). Since the beads are light sensitive, their transfer and incubation is executed in a dark room (greenlight).
The raw data is used to generate dose response curves for test compounds and IC50 values calculated therefrom.

recombinant human mTOR = recombinant human mTOR (Homo sapiens (Human), UniProt P42345); assay: Test 1: mTOR ATP-binding assay based on TR-FRET; conditions: GST-tagged truncated human mTOR, tracer-314, TR-FRET
Experimental: Test 1: mTOR ATP-Binding Assay Based on TR-FRET for Recombinant Human mTOR
2. The final volume of the assay is 10 μL and the order of addition is as follows:
50 nL of compounds dilution;
Incubated for 60 minutes at room temperature.
TR-FRET measured in Biotek Synergy2 reader at: • Excitation 340 nm/emission 665 nm • Excitation 340 nm/emission 620 nm
The following final concentrations are used:
1 nM Europium anti-GST antibody;
The following controls are used:
3. IC50 determinations may be performed as follows:
The Emission ratio is converted to percentage of inhibition for each compound concentration. IC50 values are calculated by fitting a sigmoidal dose-response curve to a plot of assay readout over compound concentration. All fits and analysis are performed with the program XLfit4 (ID Business Solutions, Guildford, UK).

[2] = 1 h, read-out: Test 2: T389 cellular assay IC50 (nM)
[3] = TSC1-/- MEFs, 1 hour treatment, P-P70S6K (T389), read-out: Test 2: T389 cellular assay IC50

Sequence of recombinant human mTOR (P42345 1360-2549): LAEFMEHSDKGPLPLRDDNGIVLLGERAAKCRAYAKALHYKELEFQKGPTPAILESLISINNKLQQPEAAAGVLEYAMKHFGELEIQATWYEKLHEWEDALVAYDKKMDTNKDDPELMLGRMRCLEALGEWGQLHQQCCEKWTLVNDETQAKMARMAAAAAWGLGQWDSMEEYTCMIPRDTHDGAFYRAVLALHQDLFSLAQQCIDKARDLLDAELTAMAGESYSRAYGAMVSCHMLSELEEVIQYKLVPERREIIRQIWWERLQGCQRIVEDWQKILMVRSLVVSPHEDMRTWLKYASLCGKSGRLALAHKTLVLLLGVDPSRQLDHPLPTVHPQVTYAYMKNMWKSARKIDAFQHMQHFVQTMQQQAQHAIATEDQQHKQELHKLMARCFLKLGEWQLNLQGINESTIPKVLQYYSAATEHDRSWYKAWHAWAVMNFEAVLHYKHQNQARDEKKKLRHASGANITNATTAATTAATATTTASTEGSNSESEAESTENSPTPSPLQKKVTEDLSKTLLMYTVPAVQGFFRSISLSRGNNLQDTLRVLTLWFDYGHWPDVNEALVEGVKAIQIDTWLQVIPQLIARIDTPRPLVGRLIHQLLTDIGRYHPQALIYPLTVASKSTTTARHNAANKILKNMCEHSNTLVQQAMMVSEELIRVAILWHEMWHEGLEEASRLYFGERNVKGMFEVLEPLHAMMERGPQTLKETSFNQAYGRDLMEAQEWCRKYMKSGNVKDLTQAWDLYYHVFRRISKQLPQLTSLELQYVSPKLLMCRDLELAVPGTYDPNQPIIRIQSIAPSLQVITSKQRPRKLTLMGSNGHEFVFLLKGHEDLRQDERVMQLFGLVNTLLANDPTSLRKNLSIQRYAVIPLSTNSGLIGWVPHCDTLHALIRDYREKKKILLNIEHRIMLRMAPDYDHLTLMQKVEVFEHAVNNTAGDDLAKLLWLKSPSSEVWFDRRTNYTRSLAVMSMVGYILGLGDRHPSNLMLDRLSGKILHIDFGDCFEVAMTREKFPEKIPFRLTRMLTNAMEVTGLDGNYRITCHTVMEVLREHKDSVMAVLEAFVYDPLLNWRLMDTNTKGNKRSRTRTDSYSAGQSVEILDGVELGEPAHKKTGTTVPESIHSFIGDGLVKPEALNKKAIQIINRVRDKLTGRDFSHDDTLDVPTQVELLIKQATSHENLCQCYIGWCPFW

Row | Compound | EC50 (H4 mCherry-GFP-LC3 cells; Homo sapiens) [nM] | IC50 [1, 2] [nM] | IC50 (recombinant human mTOR) [nM] | other results
1 | C[C@@H]1COCCN1c1nc(N2CCOC[C@H]2C)c2nc(-c3cnc(N)nc3)[nH]c2n1 [Example 29, 5-[2,6-Bis-((R)-3-methyl-morpholin-4-yl) 9H-purin-8-yl]-pyrimidin-2-yl-amine] | 3610 | 498 | 1310 | 
2 | C[C@@H]1CN(c2nc(N3CCOC[C@H]3C)c3nc(-c4cccc5[nH]ccc45)[nH]c3n2)C[C@H](C)O1 [Example 23, 2-((2S,6R)-2,6-Dimethyl-morpholin-4-yl)-8-(1H-indol-4-yl)-6-((R)-3-methyl-morpholin-4-yl)-9H-purine] |  | 104 | 78 | Test 3: Autophagy EC50 (nM) (H4 mCherry-GFP-LC3 cells): n.m.
3 | C[C@@H]1COCCN1c1nc(N2CCOC[C@@H]2C)nc2[nH]c(-c3cc(F)cc4[nH]ccc34)nc12 [Example 5, 8-(6-Fluoro-1H-indol-4-yl)-2-((S)-3-methyl-morpholin-4-yl)-6-((R)-3-methyl-morpholin-4-yl)-9H-purine] |  |  | 21 | IC50 [1, 3]: 122 nM
4 | C[C@@H]1COCCN1c1nc(N2CCC3COCC3C2)nc2[nH]c(-c3cccc4[nH]ccc34)nc12 (stereo partly drawn) [Example 20, 2-(Hexahydro-furo[3,4-c]pyridin-5-yl)-8-(1H-indol-4-yl)-6-((R)-3-methyl-morpholin-4-yl)-9H-purine] |  |  |  | Test 3: Autophagy EC50 (nM) (H4 mCherry-GFP-LC3 cells): n.m.
5 | CC[C@@H]1COCCN1c1nc(N2CCOC[C@H]2C)c2nc(-c3cccc4[nH]ccc34)[nH]c2n1 [Example 15, 2-((R)-3-Ethyl-morpholin-4-yl)-8-(1H-indol-4-yl)-6-((R)-3-methyl-morpholin-4-yl)-9H-purine] | 752 | 194 | 60 | 
6 | C[C@@H]1COCCN1c1nc(N2CCN(C3COC3)CC2)nc2[nH]c(-c3cccc4[nH]ccc34)nc12 [Example 18, 8-(1H-Indol-4-yl)-6-((R)-3-methyl-morpholin-4-yl)-2-(4-oxetan-3-yl-piperazin-1-yl)-9H-purine] |  |  | 91 | Test 3: Autophagy EC50 (nM) (H4 mCherry-GFP-LC3 cells): n.m.; IC50 [1, 3]: 249 nM
7 | C[C@@H]1COCCN1c1nc(N2CCOC[C@H]2C)c2nc(-c3ccc(N)nc3)[nH]c2n1 [Example 28, 5-[2,6-Bis-((R)-3-methyl-morpholin-4-yl)-9H-purin-8-yl]-pyridin-2-ylamine] | 2370 | 272 | 754 | 
8 | C[C@@H]1COCCN1c1nc(N2CCOC[C@@H]2C)nc2[nH]c(-c3cc[nH]n3)nc12 [Example 2, 2-((S)-3-Methyl-morpholin-4-yl)-6-((R)-3-methyl-morpholin-4-yl)-8-(1H-pyrazol-3-yl)-9H-purine] | 1050 |  | 104 | IC50 [1, 3]: 131 nM
9 | C[C@@H]1COCCN1c1nc(N2CCO[C@H](CO)C2)nc2[nH]c(-c3cccc4[nH]ccc34)nc12 [Example 25, {(S)-4-[8-(1H-Indol-4-yl)-6-((R)-3-methyl-morpholin-4-yl)-9H-purin-2-yl]-morpholin-2-yl}-methanol] |  | 1930 | 380 | 
10 | C[C@@H]1COCCN1c1nc(N2C3CCC2CC(O)C3)nc2[nH]c(-c3cccc4[nH]ccc34)nc12 (stereo partly drawn) [Example 13, 8-[8-(1H-Indol-4-yl)-6-((R)-3-methyl-morpholin-4-yl)-9H-purin-2-yl]-8-aza-bicyclo[3.2.1]octan-3-ol] | 935 |  |  | 
11 | C[C@@H]1COCCN1c1nc(N2CC3COCC3C2)nc2[nH]c(-c3cccc4[nH]ccc34)nc12 (stereo partly drawn) [Example 19, 8-(1H-Indol-4-yl)-6-((R)-3-methyl-morpholin-4-yl)-2-(tetrahydro-furo[3,4-c]pyrrol-5-yl)-9H-purine] | 727 | 471 |  | 
12 | C[C@@H]1COCCN1c1nc(N2C3CCC2CC(O)C3)nc2[nH]c(-c3cccc4[nH]ccc34)nc12 (stereo partly drawn) [Example 14, 8-[8-(1H-Indol-4-yl)-6-((R)-3-methyl-morpholin-4-yl)-9H-purin-2-yl]-8-aza-bicyclo[3.2.1]octan-3-ol] |  |  |  | EC50 (H4 mCherry-GFP-LC3 cells): 855 nM
13 | C[C@@H]1COCCN1c1nc(N2CCO[C@@H](CO)C2)nc2[nH]c(-c3cccc4[nH]ccc34)nc12 [Example 26, {(R)-4-[8-(1H-Indol-4-yl)-6-((R)-3-methyl-morpholin-4-yl)-9H-purin-2-yl]-morpholin-2-yl}-methanol] |  | 318 | 67 | 
14 | C[C@@H]1COCCN1c1nc(N2CC3(CCCOC3)C2)nc2[nH]c(-c3cccc4[nH]ccc34)nc12 [Example 17, 8-(1H-Indol-4-yl)-6-((R)-3-methyl-morpholin-4-yl)-2-(6-oxa-2-aza-spiro[3.5]non-2-yl)-9H-purine] | 663 |  |  | 
15 | CC(C)[C@@H]1COCCN1c1nc(N2CCOC[C@H]2C)c2nc(-c3cccc4[nH]ccc34)[nH]c2n1 [Example 21, 8-(1H-Indol-4-yl)-2-((R)-3-isopropyl-morpholin-4-yl)-6-((R)-3-methyl-morpholin-4-yl)-9H-purine] |  | 179 | 122 | 
16 | c1ccc(-c2nc3c(N4CCOCC4)nc(N4CCOCC4)nc3[nH]2)nc1 [Example 9, 2,6-Di-morpholin-4-yl-8-pyridin-2-yl-9H-purine] |  |  | 860 | 
17 | C[C@@H]1COCCN1c1nc(N2CCC23CCOCC3)nc2[nH]c(-c3cccc4[nH]ccc34)nc12 [Example 24, 8-(1H-Indol-4-yl)-6-((R)-3-methyl-morpholin-4-yl)-2-(7-oxa-1-aza-spiro[3.5]non-1-yl)-9H-purine] | 302 |  |  | 

From US9334271B2, “Purine derivatives and their use in the treatment of disease” (Novarits AG, priority 2012, dated 2016)
